{"source": "patent US6794398B1", "about": "“Preventive/remedies for liver diseases” (Mitsubishi Pharma Corporation, priority 1999, dated 2004)", "key": {"[1]": {"tested_on": "Hepatic stellate cells (HSC)", "assay": "Effect on cell morphology of hepatic stellate cell", "format": "cell-based, rat", "details": "Y-27632 30 μM, DMEM with 1% FCS, one hour, phase contrast microscope", "method": "Hepatic stellate cells (HSC) were prepared from the liver of male Wistar rat according to the method of Friedman et al (Friedman S. L, et al., Proc Natl Acad Sci USA 1985; 82: 8681-8685). HSC were cultured in Dulbecco's modified Eagle's medium (DMEM) containing 20% fetal calf serum (FCS) and the cells after 3 to 8 passages were used. HSC to be subjected to the experiment were sown in a dish treated with fibronectin (10 μg/ml), cultured in DMEM medium containing 20% FCS for 24 hours and changed to DMEM medium containing 1% FCS or DMEM medium containing Y-27632 (30 μM) and 1% FCS. One hour later, HSC were fixed with a 3.7% formaldehyde solution and observed under a phase contrast microscope."}, "[2]": {"tested_on": "Hepatic stellate cells (HSC)", "assay": "Effect on production of collagen I in hepatic stellate cells (ELISA)", "format": "cell-based, rat", "details": "Y-27632 30 μM, DMEM without FCS, 48 hours of culture, n=4", "method": "In the same manner as in Experimental Example 1, HSC were prepared from rat liver and cultured in DMEM medium containing 20% FCS for 8 days and changed to DMEM medium without FCS or DMEM medium containing Y-27632 (30 μM) but without FCS. After 48 hours of culture, the amount of collagen I contained in the supernatant was measured by ELISA (enzyme-linked immunosorbent assay) (Moshage H, et al., Hepatology 1990; 12: 511-518). As a result, the amount was 19.5±3.0 μg/μg DNA for the group without Y-27632 and 8.2±2.3 μg/μg DNA for the group with the addition of Y-27632, showing a significant low level for the group with the addition of Y-27632 (p<0.01, n=4)."}, "[3]": {"tested_on": "rat with hepatic fibrosis induced by dimethylnitrosamine", "assay": "Effect on rat with hepatic fibrosis induced by dimethylnitrosamine", "format": "in vivo", "details": "30 mg/kg orally every day for 4 weeks, male Wistar rats, liver, 5 rats", "method": "1% Dimethylnitrosamine (100 μl/100 g rat body weight) was intraperitoneally administered to male Wistar rats for 3 consecutive days per week for 4 weeks (12 times in total) to prepare a hepatic fibrosis model rat. To the Y-27632 administration group, Y-27632 (30 mg/kg) was orally administered every day for 4 weeks from the day when the dimethylnitrosamine administration was started. To the control group, physiological saline was administered. Four weeks later, the liver was removed and the level of fibrogenesis of the tissue, collagen content and hydroxyproline amount were measured.\nThe level of fibrogenesis was measured as follows. A part of the removed liver was fixed with a formalin solution overnight, and a paraffin embedded piece was prepared and stained by Masson trichrome stain. The stained images were input in a computer through a digital camera (Fujix HC-1000, Fuji Film, Tokyo, Japan) and, using a computer-assisted morphometric analyzer (MacScope, Mitani corporation, Fukui, Japan), the area ratio of the collagen portion stained in bright green was determined as the degree of fibrogenesis.\nThe amout of tissue collagen was measured as follows according to the method of Shiba et al. (Shiba M, et al. Liver, 1998, Jun; 18(3): 196-204). That is, a part of the removed liver was homogenized with a 33-fold amount (ml/g) of 0.5M aqueous acetic acid solution in a Polytron PCU-2 homogenizer (Kinematica, Luzern, Switzerland). The homogenate was subjected to ultrasonication treatment for 2 min after freeze-thawing. After extraction with an acid, a fraction containing insoluble collagen was heated at 80° C. for 60 minutes to convert the insoluble collagen to water-soluble gelatin. The amount of gelatin was measured with a Sircol collagen assay kit (Biocolor, Belfast, Northern Ireland).\nThe amount of hydroxyproline was measured as follows. […] The amount of hydroxyproline was measured according to the method of Fujiwara et al. (Fujiwara et al., Anal. Biochem., 1987; 166: 72-8) with a high performance liquid chromatography system (SRL Inc., Tachikawa, Japan)."}}, "data": [{"compound": "C[C@@H](N)[C@H]1CC[C@H](C(=O)Nc2ccncc2)CC1", "note": "[Compound Y-27632, (+)-trans-4-(1-aminoethyl)-1-(4-pyridylcarbamoyl)cyclohexane 2HCl·H2O]", "values": [{"measurement": "cell morphology of hepatic stellate cells", "setting": "[1]", "value": "spindle-like shape with dendroidal protrusions (non-active type)"}, {"measurement": "amount of collagen I contained in the supernatant", "setting": "[2]", "value": "8.2±2.3", "unit": "μg/μg DNA"}, {"measurement": "content of collagen in the tissue", "setting": "[3]", "value": "601.3±67.7 μg/100 mg-rat liver weight"}, {"measurement": "content of hydroxyproline in the tissue", "setting": "[3]", "value": "29.8±9.1", "unit": "μmol/g-rat liver weight"}, {"measurement": "level of fibrogenesis (area ratio of collagen portion, Masson trichrome stain)", "setting": "[3]", "value": "6.3±0.7", "unit": "%"}]}]}
